What was measured:
Format in all cases: functional
[1] = test system: HCT-116; assay: Growth inhibition of human HCT116 cells by sulforhodamine B assay
[2] = test system: HCT-15; assay: Growth inhibition of human HCT15 cells by sulforhodamine B assay
[3] = test system: COLO 205; assay: Growth inhibition of human COLO205 cells by sulforhodamine B assay
[4] = test system: CCRF-CEM; assay: Growth inhibition of human CCRF-CEM cells by sulforhodamine B assay
[5] = test system: OVCAR-3; assay: Growth inhibition of human OVCAR3 cells assessed as cell growth at 10^-8 M by sulforhodamine B assay; details: read-out: Activity
[6] = test system: SK-MEL-5; assay: Growth inhibition of human SK-MEL-5 cells assessed as cell growth at 10^-8 M by sulforhodamine B assay; details: read-out: Activity
[7] = test system: M14; assay: Growth inhibition of human M14 cells assessed as cell growth at 10^-8 M by sulforhodamine B assay; details: read-out: Activity
[8] = test system: LOX IMVI; assay: Growth inhibition of human LOXIMVI cells assessed as cell growth at 10^-8 M by sulforhodamine B assay; details: read-out: Activity
[9] = test system: SF-295; assay: Growth inhibition of human SF295 cells assessed as cell growth at 10^-8 M by sulforhodamine B assay; details: read-out: Activity
[10] = test system: HOP-62; assay: Growth inhibition of human HOP62 cells assessed as cell growth at 10^-8 M by sulforhodamine B assay; details: read-out: Activity
[11] = test system: MDA-MB-231; assay: Growth inhibition of human MDA-MB-231 cells by sulforhodamine B assay
[12] = test system: CAKI-1; assay: Growth inhibition of human CAKI-1 cells by sulforhodamine B assay
[13] = test system: 786-0; assay: Growth inhibition of human 786-0 cells by sulforhodamine B assay
[14] = test system: M14; assay: Growth inhibition of human M14 cells by sulforhodamine B assay
[15] = test system: SNB-19; assay: Growth inhibition of human SNB19 cells by sulforhodamine B assay
[16] = test system: T47D; assay: Growth inhibition of human T47D cells assessed as cell growth at 10^-4 M by sulforhodamine B assay; details: read-out: Activity
[17] = test system: SN12C; assay: Growth inhibition of human SN12C cells assessed as cell growth at 10^-4 M by sulforhodamine B assay; details: read-out: Activity
[18] = test system: OVCAR-3; assay: Growth inhibition of human OVCAR3 cells assessed as cell growth at 10^-4 M by sulforhodamine B assay; details: read-out: Activity
[19] = test system: HCT-15; assay: Growth inhibition of human HCT15 cells assessed as cell growth at 10^-4 M by sulforhodamine B assay; details: read-out: Activity
[20] = Growth inhibition of human HCC2998 cells assessed as cell growth at 10^-4 M by sulforhodamine B assay; details: HCC 2998, read-out: Activity
[21] = test system: NCI-H522; assay: Growth inhibition of human NCI-H522 cells assessed as cell growth at 10^-4 M by sulforhodamine B assay; details: read-out: Activity
[22] = test system: HOP-62; assay: Growth inhibition of human HOP62 cells assessed as cell growth at 10^-4 M by sulforhodamine B assay; details: read-out: Activity
[23] = test system: BT-549; assay: Growth inhibition of human BT549 cells assessed as cell growth at 10^-6 M by sulforhodamine B assay; details: read-out: Activity
[24] = test system: IGROV-1; assay: Growth inhibition of human IGROV1 cells assessed as cell growth at 10^-6 M by sulforhodamine B assay; details: read-out: Activity
[25] = test system: SF-539; assay: Growth inhibition of human SF539 cells assessed as cell growth at 10^-6 M by sulforhodamine B assay; details: read-out: Activity
[26] = test system: COLO 205; assay: Growth inhibition of human COLO205 cells assessed as cell growth at 10^-6 M by sulforhodamine B assay; details: read-out: Activity
[27] = test system: NCI-H460; assay: Growth inhibition of human NCI-H460 cells assessed as cell growth at 10^-6 M by sulforhodamine B assay; details: read-out: Activity
[28] = test system: MOLT-4; assay: Growth inhibition of human MOLT4 cells assessed as cell growth at 10^-6 M by sulforhodamine B assay; details: read-out: Activity
[29] = test system: HL-60(TB); assay: Growth inhibition of human HL-60(TB) cells assessed as cell growth at 10^-6 M by sulforhodamine B assay; details: read-out: Activity
[30] = test system: CCRF-CEM; assay: Growth inhibition of human CCRF-CEM cells assessed as cell growth at 10^-6 M by sulforhodamine B assay; details: read-out: Activity
[31] = test system: BT-549; assay: Growth inhibition of human BT549 cells assessed as cell growth at 10^-7 M by sulforhodamine B assay; details: read-out: Activity
[32] = test system: OVCAR-5; assay: Growth inhibition of human OVCAR5 cells assessed as cell growth at 10^-7 M by sulforhodamine B assay; details: read-out: Activity
[33] = test system: SK-MEL-2; assay: Growth inhibition of human SK-MEL-2 cells assessed as cell growth at 10^-7 M by sulforhodamine B assay; details: read-out: Activity
[34] = test system: Malme-3M; assay: Growth inhibition of human MALME-3M cells assessed as cell growth at 10^-7 M by sulforhodamine B assay; details: read-out: Activity
[35] = test system: U-251; assay: Growth inhibition of human U251 cells assessed as cell growth at 10^-7 M by sulforhodamine B assay; details: read-out: Activity
[36] = test system: MOLT-4; assay: Growth inhibition of human MOLT4 cells assessed as cell growth at 10^-7 M by sulforhodamine B assay; details: read-out: Activity
[37] = test system: CCRF-CEM; assay: Growth inhibition of human CCRF-CEM cells assessed as cell growth at 10^-7 M by sulforhodamine B assay; details: read-out: Activity
[38] = test system: RXF 393; assay: Growth inhibition of human RXF393 cells assessed as cell growth at 10^-8 M by sulforhodamine B assay; details: read-out: Activity
[39] = test system: 786-0; assay: Growth inhibition of human 786-0 cells assessed as cell growth at 10^-8 M by sulforhodamine B assay; details: read-out: Activity
[40] = read-out: LC50 (the source's name)
[41] = read-out: pLC50 (the source's name) (converted)

**Q.** What does the source list for `CC(C)=CC(=O)O[C@@H]1CC(C)(C)C[C@H]2C3=CC[C@@H]4[C@@]5(C)CC[C@H](O)C(C)(C)[C@@H]5CC[C@@]4(C)[C@]3(C)CC[C@@]12C(=O)O` [Reduced Lantadene B]?
**A.** GI50 ([1]; read-out: GI50): 2.67 µM; LC50 ([1]; read-out: LC50): 50.2 µM; TGI ([1]; read-out: TGI): 15.9 µM; GI50 ([1]; read-out: pGI50 (converted)): 2.69 µM; LC50 ([1]; read-out: pLC50 (converted)): 50.1 µM; TGI ([1]; read-out: pTGI (converted)): 15.8 µM; GI50 ([2]; read-out: GI50): 1.56 µM; LC50 (50% lethal concentration) ([2]; read-out: LC50): > 100 µM; TGI ([2]; read-out: TGI): 19.2 µM; GI50 ([2]; read-out: pGI50 (converted)): 1.55 µM; LC50 (50% lethal concentration) ([2]; read-out: pLC50 (converted)): > 100 µM; TGI ([2]; read-out: pTGI (converted)): 19.1 µM; GI50 ([3]; read-out: GI50): 3.66 µM; LC50 ([3]; read-out: LC50): 93.6 µM; TGI ([3]; read-out: TGI): 14.3 µM; GI50 ([3]; read-out: pGI50 (converted)): 3.63 µM; LC50 ([3]; read-out: pLC50 (converted)): 93.3 µM; TGI ([3]; read-out: pTGI (converted)): 14.5 µM; GI50 ([4]; read-out: GI50): 2.83 µM; CC50 [4, 40]: > 100 µM; TGI ([4]; read-out: TGI): 34.8 µM; GI50 ([4]; read-out: pGI50 (converted)): 2.82 µM; CC50 [4, 41]: > 100 µM; TGI ([4]; read-out: pTGI (converted)): 34.7 µM; growth at 0.01 µM [5]: 104%; growth at 0.01 µM [6]: 93%; growth at 0.01 µM [7]: 94%; growth at 0.01 µM [8]: 98%; growth at 0.01 µM [9]: 95%; growth at 0.01 µM [10]: 85%; GI50 ([11]; read-out: GI50): 4.56 µM; CC50 [11, 40]: 54.7 µM; TGI ([11]; read-out: TGI): 19.4 µM; GI50 ([11]; read-out: pGI50 (converted)): 4.57 µM; CC50 [11, 41]: 55 µM; TGI ([11]; read-out: pTGI (converted)): 19.5 µM; GI50 ([12]; read-out: GI50): 3.39 µM; CC50 [12, 40]: > 100 µM; TGI ([12]; read-out: TGI): 46.8 µM; GI50 ([12]; read-out: pGI50 (converted)): 3.39 µM; CC50 [12, 41]: > 100 µM; TGI ([12]; read-out: pTGI (converted)): 46.8 µM; GI50 ([13]; read-out: GI50): 3.06 µM; CC50 [13, 40]: 50.7 µM; TGI ([13]; read-out: TGI): 11.5 µM; GI50 ([13]; read-out: pGI50 (converted)): 3.09 µM; CC50 [13, 41]: 51.3 µM; TGI ([13]; read-out: pTGI (converted)): 11.5 µM; GI50 ([14]; read-out: GI50): 7.71 µM; CC50 [14, 40]: 67.8 µM; TGI ([14]; read-out: TGI): 24.8 µM; GI50 ([14]; read-out: pGI50 (converted)): 7.76 µM; CC50 [14, 41]: 67.6 µM; TGI ([14]; read-out: pTGI (converted)): 24.5 µM; GI50 ([15]; read-out: GI50): 4.93 µM; CC50 [15, 40]: 74.4 µM; TGI ([15]; read-out: TGI): 22.5 µM; GI50 ([15]; read-out: pGI50 (converted)): 4.9 µM; CC50 [15, 41]: 74.1 µM; TGI ([15]; read-out: pTGI (converted)): 22.4 µM; growth at 100 µM [16]: -17%; growth at 100 µM [17]: -91%; growth at 100 µM [18]: -83%; growth at 100 µM [19]: -44%; growth at 100 µM [20]: -66%; growth at 100 µM [21]: -64%; growth at 100 µM [22]: -60%; growth at 1 µM [23]: 93%; growth at 1 µM [24]: 101%; growth at 1 µM [25]: 92%; growth at 1 µM [26]: 102%; growth at 1 µM [27]: 78%; growth at 1 µM [28]: 78%; growth at 1 µM [29]: 96%; growth at 1 µM [30]: 75%; growth at 0.1 µM [31]: 98%; growth at 0.1 µM [32]: 111%; growth at 0.1 µM [33]: 95%; growth at 0.1 µM [34]: 94%; growth at 0.1 µM [35]: 96%; growth at 0.1 µM [36]: 94%; growth at 0.1 µM [37]: 102%; growth at 0.01 µM [38]: 97%; growth at 0.01 µM [39]: 97%

Source: ChEMBL document CHEMBL2413072, “Synthesis and in vitro anticancer studies of novel C-2 arylidene congeners of lantadenes” (2013)
